Measurements: patent US20240325374A1, “INHIBITING INTRACELLULAR PATHOGENS” (THE RESEARCH INSTITUTE AT NATIONWIDE CHILDREN'S HOSPITAL, priority 2021, published 2024)

Columns and labels:
S. typhimurium [1] = assay: Broth antibacterial assay (OD600 in LB); format: cell-based; conditions: KH-2 10 μM, 20 μM and 50 μM
Experimental: An equivalent amount of DMSO was added in a control group. The bacterial growth was monitored at an optical density at 600 nm (OD600) at the indicated time points using a plate reader Spectra Max M3.
Overnight cultures of S. typhimurium were sub-cultured (1:100) in fresh Luria-Bertani (LB) broth in presence of different concentration of KH-2 and incubated at 37° C. The vehicle control (DMSO) groups were included. The experiments were performed in 96-well plates. The bacterial growth was monitored at different time-points by measuring optical density at 600 nm (OD600).

[2] = test system: S. typhimurium-infected J774.1 macrophages; assay: LDH release from Salmonella-infected macrophages; format: cell-based, murine; conditions: 5 μM, 10 μM and 20 μM, after 24 h
Experimental: The strategy to identify host-targeted compounds is outlined in FIG. 1. Briefly, J774.1 macrophages in suspension at 3×10^6 cells/ml were infected with S. typhimurium at a multiplicity of infection (MOI) of 10 for 1 hour with orbital shaking at 80 rpm. […] The infected macrophages were resuspended in a medium containing 10 μg/ml gentamicin, seeded onto 96-well plates at 10^5 cells/well in 150 μl medium, and allowed to adhere to the well for three hours. The infected cells in each well were then treated with 25 μM of each compound from the ATP mimetic library using a multichannel pipette. […] After 24 hours of incubation, an LDH assay (Roche Applied Science, Indianapolis, IN) was performed using 50 μl of supernatant from each well. Absorbance at 570 nm was determined via a plate reader Spectra Max M3. […]
We developed a cell-based assay to screen 3000 compounds of an ATP-mimetic library purchased from ChemBridge using J774.1 macrophages for those that protect S. typhimurium-infected macrophages from death. The viability of Salmonella-infected J774.1 cells was determined by measuring LDH release from the infected cells. […] To examine whether the reduction in LDH release was due to the limited growth of the bacteria intracellularly, the infected cells were treated with various concentrations of KH-1, and the intracellular bacterial load was determined at 24 hours post-treatment. […]

[3] = test system: S. typhimurium wild-type strain ATCC 14028; assay: Bacterial growth in macrophages (intracellular CFU), wild-type S. typhimurium in J774.1; format: cell-based
Description: (§1) Hoang et al., International Journal of Pharmaceutics, 2014. 477(1-2): p. 334-343.
The J774.1 cells were infected with S. typhimurium and treated with KH-2.

S. typhimurium [4] = assay: KH-2 protection of mice from lethal S. typhimurium infection, survival; format: in vivo, BALB/c mice; conditions: 0.5, 1.0, 2.5 and 5 mg/kg/day i.p., day 1 to day 12, oral infection 10^6 bacteria/mouse, survival to day 14
Experimental: Pathogen-free 6- to 8-week-old female BALB/c mice were purchased from Harlan Sprague. Mice (3 mice/group, except the vehicle control group) were provided food and water ad libitum in sterile microisolator cages and allowed to acclimatize for 3 days before challenge. Mice were orally infected with 10^6 bacteria/mouse (day 0) in 200 μl PBS. The infected mice were intraperitoneally given KH-2 at different doses (5 mg, 2.5 mg, 1 mg, and 0.5 mg/kg body weight/day) in 200 μl PBS from day 1 to day 12 post infection. Vehicle (DMSO) was added as the control group. The mice were monitored for survival until day 14 post infection. […] A mouse model of typhoid fever was used to assess the efficacy of KH-2 in increasing the survival rate of infected mice.

macrophages = assay: Toxicity of compound alone to macrophages by LDH release; format: cell-based; conditions: effective concentrations
uninfected mice = assay: Toxicity study of KH-1-2 in vivo
Experimental: To examine the toxicity of KH-1-2, mice were intraperitoneally (i.p.) given KH-1-2 that was dissolved in 200 μl of polyethylene glycol 400 (PEG 400)-0.9% saline-ethanol (50:35:15) at 1 mg and 10 mg/kg of body weight per day for 12 consecutive days. Mice in the control groups received 200 μl of PEG-saline-ethanol. The experimental animals were observed daily throughout the study for clinical signs, and mortality. At the end of the experiment, mice were sacrificed, and liver, spleen, and kidney were collected, fixed in 4% paraformaldehyde for 72 hrs, processed and stained with hematoxylin and eosin (H&E) for histopathologic evaluation, which was performed at the Morphology Core at Nationwide Children's Hospital.
To examine the in vivo toxicity of KH-1-2, uninfected mice were given KH-1-2 intraperitoneally in 200 μl of polyethylene glycol 400 (PEG 400)-0.9% saline-ethanol (50:35:15) at 1 and 10 mg/kg body weight daily for 12 consecutive days. Mice in the control group were treated with an equal amount of diluent. Mice were monitored for clinical signs and at day 13, the liver, spleen, and kidney were collected for histopathologic evaluation.

[5] = test system: PLB-985 neutrophil-like cells; assay: Neutrophil reactive oxygen species production assay; format: cell-based; conditions: various concentrations, luminol chemiluminescence for 1 hour
Experimental: PLB-985 cells that were cultured in RPMI supplemented with 10% FBS and penicillin-streptomycin (100 μg/ml each) were differentiated to a neutrophil-like phenotype by 6-day incubation in RPMI supplemented with 0.5% N,N-dimethylformamide, 0.5% FBS, 1% Nutridoma-SP (Roche; Mannheim, Germany), […] L-glutamine, and 1× penicillin/streptomycin. Media was replaced on day 3. On day 6 after differentiation, the medium was removed and replaced with 100 μl fresh medium containing different concentrations of KH-1-2. Cells in the positive control group were stimulated with 400 ng PMA/ml. Cells in the negative control group were treated with an equivalent concentration of DMSO. All groups were supplied with luminol (final concentration of 500 μM) and reactive oxygen species (ROS) production at 37° C. was monitored in triplicate by luminol-dependent chemiluminescence measured every 2 minutes for 1 hour using a Spectra Max M3 plate reader.

S. typhi strain TY2 = assay: Bacterial growth in macrophages (intracellular CFU), S. typhi in J774.1; format: cell-based; conditions: infected J774.1, 24 hrs post treatment
Description: as §1

[6] = test system: ciprofloxacin-resistant S. typhimurium; assay: Mouse model of typhoid fever, ciprofloxacin-resistant S. typhimurium, survival; format: in vivo, BALB/c mice
Experimental: S. typhi is a human-restricted pathogen and is unable to colonize in mice. However, S. typhimurium causes a typhoid fever-like disease in mice and is widely used as a model to study human typhoid fever. Johnson, R., E. Mylona, and G. Frankel, Cell Microbiol, 2018. 20(9): p. e12939. […] Mice were infected with the ciprofloxacin-resistant S. typhimurium at a lethal dose of 10^6 CFU per mouse in 200 μl PBS via the i.p. route.
After determining the maximum tolerable dose of KH-1-2 by the i.p. route (10 mg/kg of body weight per day), the protective efficacy of KH-1-2 as a treatment for typhoid fever was evaluated. Mice (4 or 5 mice per group) were infected at day 0 with a lethal dose of the ciprofloxacin-resistant S. typhimurium isolate as described above. One day post-infection, the infected mice were given KH-1-2 prepared in 200 μl PBS at 0.05, 0.1, and 0.25 mg/kg body weight per day via i.p. delivery for 14 consecutive days.
We next sought to examine the effectiveness of delivering KH-1-2 for controlling a ciprofloxacin-resistant S. typhimurium isolate in a mouse model of typhoid fever. Mice were challenged with a lethal dose of bacteria via oral gavage and the infected mice were i.p. treated with KH-1-2 prepared in 200 μl PBS at 0.05, 0.1, and 0.25 mg/kg body weight/day for 14 consecutive days. […] As expected, all mice in the control group were moribund before or at day 12 post-infection.

Structure (SMILES) | growth of Salmonella in Luria-Bertani (LB) bacterial growth media (OD600) (S. typhimurium [1]) | lactate dehydrogenase (LDH) release from Salmonella infected J774.1 macrophages [2] | growth of Salmonella in J774.1 macrophages (intracellular CFU) ([3]; KH-2 5 μM, 10 μM and 20 μM, after 24 hours) | survival of mice after lethal Salmonella infection (S. typhimurium [4]) | toxicity to macrophages as measured by LDH release (macrophages) | liver histopathology (uninfected mice; 1 mg/kg i.p. daily) | liver histopathology (uninfected mice; 10 mg/kg i.p. daily) | maximum tolerable dose (uninfected mice; i.p. route, mice) | clinical signs (uninfected mice; uninfected mice, i.p., 1 and 10 mg/kg body weight daily, 12 consecutive days) | immune cell migration and apoptosis in liver, spleen, kidney (uninfected mice; uninfected mice, i.p., 1 and 10 mg/kg daily, 12 days) | histologic evaluation of the liver, spleen, and kidney (uninfected mice; uninfected mice, i.p., 1 and 10 mg/kg daily, 12 days, organs at day 13) | reactive oxygen species (ROS) production [5] | intracellular growth of S. typhi, compared with KH-1 (S. typhi strain TY2) | survival ([6]; 0.1 mg/kg body weight/day i.p., 14 consecutive days, lethal dose 10^6 CFU/mouse) [%] | survival versus control untreated group ([6]; 0.05, 0.1 and 0.25 mg/kg body weight/day i.p., 14 days, p<0.05) | EC50 ([3]; Salmonella enterica, infected J774.1 cells, CFU at 24 hrs post treatment, % of DMSO control, read-out: half maximal effective concentration (EC50) on S. typhimurium) [nM] | reduction in bacterial load in infected macrophages ([3]; in vitro treatment of Salmonella infection) | intracellular bacterial growth in combination with sub-optimal ciprofloxacin ([3]; infected macrophages, with sub-optimal dose of ciprofloxacin, 24 hours post-treatment)
COC(=O)c1cccc(COC(=O)c2cc(O)nc3ccccc23)c1 [KH-2, 3-(methoxycarbonyl)benzyl 2-hydroxy-4-quinolinecarboxylate] | does not inhibit the growth of Salmonella in Luria-Bertani (LB) bacterial growth media | reduced lactate dehydrogenase (LDH) release from Salmonella infected J774.1 macrophages | inhibits the growth of Salmonella in J774.1 macrophages | protects mice from lethal Salmonella infection | – | – | – | – | – | – | – | – | – | – | – | – | – | –
O=C1c2oc3ccccc3c(=O)c2C(c2cccc(Oc3ccccc3)c2)N1Cc1ccc(F)cc1 (stereo not drawn) [KH-1-2, 2-(4-fluorobenzyl)-1-(3-phenoxyphenyl)-1,2-dihydrochromeno[2,3-c] pyrrole-3,9-dione] | – | – | – | – | not toxic to macrophages at the effective concentrations | no adverse effects | minimal alterations including increased infiltration of lymphocytic cells and neutrophils | 10 mg/kg of body weight per day | no adverse clinical signs | No increase in immune cell migration or significant apoptosis | no dose-related macroscopic or microscopic findings | does not involve in induction of reactive oxygen species (ROS) production | more effective at reducing the intracellular growth of S. typhi | 60 | significantly greater survival | 2600 | 8- to 10 fold | further reduces Salmonella growth inside macrophages
